# Read-outs that look alike come from different tables or passages of the source.
# Assays:
# [1] = tested on: MDA-MB231 breast cancer cells; assay: MTT in vitro cytotoxicity assay, MDA-MB231; assay type: cell-based; details: for viability at 10 µM / GI50: Homo sapiens, MDA-MB-231; for viability at 10 µM: read-out: Cell viability (%) MDA-MB231
# Protocol: (§1) The synthesized compounds were tested against three breast tumor cell lines (MDA-MB231, SKBR-3 and MCF-7) and epithelial breast cell line (MCF-10A) by the MTT colorimetric assay.[29,30] All cells were obtained from the American Type Culture Collection. The cancerous cell lines were grown in Dulbecco's modified eagle medium (DMEM) supplemented with 10% fetal bovine serum (FBS) and 1% pen-strep antibiotic. The MCF-10A human epithelial breast cell line was grown in the complete mammary epithelial growth medium containing horse serum 5%, epithelial growth factor 20 ng mL^−1, hydrocortisone […], cholera toxin 100 ng mL^−1, insulin 10 μg mL^−1, and pen-step antibiotic.[31] For the cytotoxic assay, 20 to 75 × 10^3 cells per mL (based on the doubling time for each cell line) were seeded in 96-well plates and the plates were incubated overnight in a humidified air atmosphere at 37 °C in 5% CO2 incubator.
# (§2) The cells were then treated with compounds at different concentrations. After 72 h of incubation, the MTT (0.5 mg mL^−1) was added to wells, followed by 4 h of incubation. The culture medium was then removed and DMSO (100 μL per well) was added and the absorbance values were measured at 570 nm using the multi-well Tecan NanoQuant, Infinite m200 Pro plate reader. Growth inhibitory values (GI50) were calculated using GraphPad Prism 7 (GraphPad Software, San Diego, USA) by nonlinear regression analysis. Three independent experiments were carried out and the data was expressed in mean ± standard deviation (SD). The concentration–response curves used for the GI50 calculation are available in ESI. ^†
# [2] = tested on: SKBR-3 breast cancer cells; assay: MTT in vitro cytotoxicity assay, SKBR-3; assay type: cell-based; details: Homo sapiens; for viability at 10 µM: SK-BR-3, 10 μM, 72 h, read-out: Cell viability (%) SKBR-3; for GI50: SK-BR-3, 72 h, read-out: GI50 ± SD SKBR-3
# Protocol: as §1, §2
# [3] = tested on: MCF-7 breast cancer cells; assay: MTT in vitro cytotoxicity assay, MCF-7; assay type: cell-based; details: Homo sapiens; for viability at 10 µM: MCF7, 10 μM, 72 h, read-out: Cell viability (%) MCF-7; for GI50: MCF7, 72 h, read-out: GI50 ± SD MCF-7
# Protocol: as §1, §2
# [4] = tested on: MCF-10A human epithelial breast cell line; assay: MTT in vitro cytotoxicity assay, MCF-10A; assay type: cell-based; details: 72 h, read-out: GI50 ± SD MCF-10A
# Protocol: as §1, §2
# [5] = 72 h, MTT, read-out: GI50 ± SD MDA-MB231
# [6] = MDA-MB231, calculated from GI50, read-out: Experimental pGI50 (converted)
Structure (SMILES),"viability at 10 µM ([1]; 72 h, MTT)","GI50 [1, 5]","GI50 [1, 6]",viability at 10 µM [2],GI50 [2],viability at 10 µM [3],GI50 [3],GI50 [4],melting point,"fold increase in antiproliferative activity over regioisomer ([1]; MDA-MB231, para- vs ortho-/meta-substituted ring B (13 vs 19, 14 vs 16, 15 vs 18))"
"Nc1nc(Nc2ccccc2Cl)nc(-c2ccc(C(F)(F)F)cc2)n1 [Compound 3, N ^2-(2-Chlorophenyl)-6-(4-(trifluoromethyl)phenyl)-1,3,5-triazine-2,4-diamine]",49%,13.7 ± 0.6 µM,13.8 µM,83%,17.7 ± 1.4 µM,96%,> 20 µM,> 20 µM,165 to 167 °C,–
"Nc1nc(Nc2ccc(Cl)cc2)nc(-c2ccc(OC(F)(F)F)cc2)n1 [Compound 4, N ^2-(4-Chlorophenyl)-6-(4-(trifluoromethoxy)phenyl)-1,3,5-triazine-2,4-diamine]",34%,16.7 ± 1.2 µM,16.6 µM,86%,> 20 µM,95%,> 20 µM,> 20 µM,201 to 203 °C,–
"COc1cc(-c2nc(N)nc(Nc3ccccc3Cl)n2)cc(OC)c1OC [Compound 12, N ^2-(2-Chlorophenyl)-6-(3,4,5-trimethoxyphenyl)-1,3,5-triazine-2,4-diamine]",42%,11.3 ± 1.1 µM,11.2 µM,80%,> 20 µM,100%,> 20 µM,> 20 µM,176 to 178 °C,–
"COc1cc(-c2nc(N)nc(Nc3ccc(OC(F)(F)F)cc3)n2)cc(OC)c1OC [Compound 20, N ^2-(4-(Trifluoromethoxy)phenyl)-6-(3,4,5-trimethoxyphenyl)-1,3,5-triazine-2,4-diamine]",20%,1.5 ± 0.1 µM,1.48 µM,45%,5 ± 0.35 µM,51%,> 20 µM,> 20 µM,179 to 181 °C,–
"COc1cc(-c2nc(N)nc(Nc3cccc(C)c3)n2)cc(OC)c1OC [Compound 15, N ^2-(3-Methylphenyl)-6-(3,4,5-trimethoxyphenyl)-1,3,5-triazine-2,4-diamine]",14%,2.2 ± 0.2 µM,2.19 µM,43%,6 ± 0.1 µM,86%,> 20 µM,> 20 µM,192 to 194 °C,–
"CN(Cc1cnc2nc(N)nc(N)c2n1)c1ccc(C(=O)N[C@@H](CCC(=O)O)C(=O)O)cc1 [Methotrexate, reference compound]",–,0.01 ± 0.001 µM,–,–,–,–,5.8 ± 0.5 µM,–,–,–
"CN(C)c1ccc(-c2nc(N)nc(Nc3ccccc3Cl)n2)cc1 [Compound 5, N ^2-(2-Chlorophenyl)-6-(4-(dimethylamino)phenyl)-1,3,5-triazine-2,4-diamine]",28%,0.1 ± 0.001 µM,0.1 µM,55%,0.4 ± 0.04 µM,86%,> 20 µM,> 20 µM,191 to 193 °C,–
"COc1cc(-c2nc(N)nc(Nc3cccc(Cl)c3)n2)cc(OC)c1OC [Compound 14, N ^2-(3-Chlorophenyl)-6-(3,4,5-trimethoxyphenyl)-1,3,5-triazine-2,4-diamine]",40%,9.1 ± 1.1 µM,9.12 µM,58%,16.7 ± 1.4 µM,96%,> 20 µM,> 20 µM,193 to 195 °C,–
"Cc1ccc(Nc2nc(N)nc(-c3ccc(Cl)cc3)n2)cc1 [Compound 2, 6-(4-Chlorophenyl)-N^2-(4-methylphenyl)-1,3,5-triazine-2,4-diamine]",29%,13.8 ± 1.9 µM,13.8 µM,85%,> 20 µM,100%,> 20 µM,> 20 µM,179 to 181 °C,–
"COc1ccccc1Nc1nc(N)nc(-c2cc(OC)c(OC)c(OC)c2)n1 [Compound 13, N ^2-(2-Methoxyphenyl)-6-(3,4,5-trimethoxyphenyl)-1,3,5-triazine-2,4-diamine]",16%,2.1 ± 0.2 µM,2.04 µM,57%,14 ± 1.6 µM,100%,> 20 µM,> 20 µM,173 to 175 °C,–
"COc1cc(-c2nc(N)nc(Nc3ccc(Br)cc3)n2)cc(OC)c1OC [Compound 17, N ^2-(4-Bromophenyl)-6-(3,4,5-trimethoxyphenyl)-1,3,5-triazine-2,4-diamine]",24%,0.008 ± 0.0005 µM,0.00794 µM,43%,0.17 ± 0.01 µM,48%,> 20 µM,> 20 µM,217 to 219 °C,–
"Cc1ccc(-c2nc(N)nc(Nc3ccc(Cl)cc3)n2)cc1 [Compound 7, N ^2-(4-Chlorophenyl)-6-(4-methylphenyl)-1,3,5-triazine-2,4-diamine]",51%,9.6 ± 0.2 µM,9.55 µM,76%,> 20 µM,95%,> 20 µM,> 20 µM,202 to 204 °C,–
"Cc1cn(-c2cc(NC(=O)c3ccc(C)c(Nc4nccc(-c5cccnc5)n4)c3)cc(C(F)(F)F)c2)cn1 [Nilotinib, reference compound]",–,0.04 ± 0.001 µM,–,–,9.6 ± 0.5 µM,–,–,–,–,–
"COc1ccc(-c2nc(N)nc(Nc3ccccc3)n2)cc1 [Compound 8, 6-(4-Methoxyphenyl)-N^2-phenyl-1,3,5-triazine-2,4-diamine]",28%,8.4 ± 0.3 µM,8.32 µM,67%,19.6 ± 0.9 µM,85%,14.2 ± 1.7 µM,> 20 µM,190 to 192 °C,–
"COc1cc(-c2nc(N)nc(Nc3ccccc3F)n2)cc(OC)c1OC [Compound 11, N ^2-(2-Fluorophenyl)-6-(3,4,5-trimethoxyphenyl)-1,3,5-triazine-2,4-diamine]",34%,7.9 ± 0.5 µM,7.94 µM,73%,> 20 µM,98%,> 20 µM,> 20 µM,177 to 179 °C,–
"COc1ccc(-c2nc(N)nc(Nc3ccc(C)cc3)n2)cc1 [Compound 9, 6-(4-Methoxyphenyl)-N^2-(4-methylphenyl)-1,3,5-triazine-2,4-diamine]",32%,6.1 ± 0.6 µM,6.17 µM,89%,> 20 µM,99%,> 20 µM,> 20 µM,186 to 188 °C,–
"Cc1ccc(-c2nc(N)nc(Nc3ccccc3Cl)n2)cc1 [Compound 6, N ^2-(2-Chlorophenyl)-6-(4-methylphenyl)-1,3,5-triazine-2,4-diamine]",36%,3.8 ± 0.4 µM,3.8 µM,80%,> 20 µM,51%,10.7 ± 1 µM,> 20 µM,146 to 148 °C,–
"COc1ccc(Nc2nc(N)nc(-c3cc(OC)c(OC)c(OC)c3)n2)cc1 [Compound 19, N ^2-(4-Methoxyphenyl)-6-(3,4,5-trimethoxyphenyl)-1,3,5-triazine-2,4-diamine]",20%,0.01 ± 0.001 µM,0.01 µM,48%,0.27 ± 0.02 µM,52%,> 20 µM,> 20 µM,195 to 197 °C,200 fold
"COc1cc(-c2nc(N)nc(Nc3ccc(C(C)C)cc3)n2)cc(OC)c1OC [Compound 21, N ^2-(4-Isopropylphenyl)-6-(3,4,5-trimethoxyphenyl)-1,3,5-triazine-2,4-diamine]",9%,0.04 ± 0.002 µM,0.0398 µM,42%,1.1 ± 0.05 µM,49%,10.7 ± 1.1 µM,> 20 µM,190 to 192 °C,–

# Source: paper PMC9055250, “Design, synthesis, and biological evaluation of new 6,N^2-diaryl-1,3,5-triazine-2,4-diamines as anticancer agents selectively targeting triple negative breast cancer cells” (RSC Advances, 2020)
